Measured values published in ChEMBL document CHEMBL5380875, “Discovery of a Potent and Oral Available Complex I OXPHOS Inhibitor That Abrogates Tumor Growth and Circumvents MEKi Resistance” (J Med Chem, 2023).
Calls of active or inactive are those of the source. No cut-off for these calls is given here.

What was measured:
[1] = AUC (0 to infinity) in ICR mouse at 10 mg/kg, po measured for 24 hrs by LC-MS/MS analysis; assay type: ADME, organism-based; parameters: dose 10 mg/kg, time 24 hrs, route po; settings: in vivo
Cytochrome P450 3A4 = Cytochrome P450 3A4 (Homo sapiens, UniProt P08684); assay: Inhibition of CYP3A4 in human liver microsomes using midazolam as substrate; assay type: ADME, Microsome
Sequence of Cytochrome P450 3A4 (P08684 whole entry): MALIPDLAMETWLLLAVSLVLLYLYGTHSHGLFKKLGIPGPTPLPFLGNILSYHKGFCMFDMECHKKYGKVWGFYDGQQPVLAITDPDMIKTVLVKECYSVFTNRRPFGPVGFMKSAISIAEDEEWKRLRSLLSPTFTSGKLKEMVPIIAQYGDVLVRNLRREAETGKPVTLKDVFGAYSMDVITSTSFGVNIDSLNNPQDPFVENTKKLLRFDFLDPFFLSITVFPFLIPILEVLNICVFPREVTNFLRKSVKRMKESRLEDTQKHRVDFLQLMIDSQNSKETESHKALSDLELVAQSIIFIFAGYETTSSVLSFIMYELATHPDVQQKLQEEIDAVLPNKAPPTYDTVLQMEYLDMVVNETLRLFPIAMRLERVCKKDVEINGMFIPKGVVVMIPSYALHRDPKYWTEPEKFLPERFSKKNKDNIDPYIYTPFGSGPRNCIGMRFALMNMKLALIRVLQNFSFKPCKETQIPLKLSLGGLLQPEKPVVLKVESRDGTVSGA

NCI-H460 [2] = assay: Inhibition of mitochondrial respiration in human NCI-H460 cells with high-OXPHOS assessed as reduction in basal oxygen consumption rate incubated for 12 hrs by seahorse XF96 flux analyzer; assay type: functional, cell-based; settings: dose 50-200 nM
[3] = Toxicity in mouse xenografted with human NCI-H460 cells with high-OXPHOS assessed as pathological changes in spleen at 30 mg/kg, po bid administered for 18 days by H and E staining based analysis; assay type: organism-based; settings: in vivo, 432 h, time 18 day
NCI-H441 [4] = assay: Inhibition of mitochondrial respiration in human NCI-H441 cells with high-OXPHOS assessed as reduction in basal oxygen consumption rate incubated for 12 hrs by seahorse XF96 flux analyzer; assay type: functional, cell-based; settings: dose 50-200 nM
NCI-H460 [5] = assay: Potentiation of trametinib-induced antitumor activity against human NCI-H460 cells with high-OXPHOS xenografted in mouse assessed as reduction in tumor weight at 30 mg/kg, po bid administered for 18 days and measured every 3 days by electronic caliper analysis; assay type: functional, organism-based; settings: time 18.0 day
NCI-H441 [6] = assay: Potentiation of trametinib-induced cytotoxicity against human NCI-H441 cells with high-OXPHOS harboring KRAS G12V mutant assessed as reduction in cell viability at 10 to 20 uM incubated for 72 hrs by CellTiter 96 cell proliferation assay; assay type: functional, cell-based; settings: dose 10-20 µM
A549 [7] = assay: Potentiation of trametinib-induced cytotoxicity against human Trametinib-resistant A549 cells with high-OXPHOS harboring KRAS G12S mutant assessed as reduction in cell viability at 10 to 20 uM incubated for 72 hrs by CellTiter 96 cell proliferation assay; assay type: functional, cell-based; settings: dose 10-20 µM
[8] = AUC (0 to 24 hrs) in ICR mouse at 10 mg/kg, po measured for 24 hrs by LC-MS/MS analysis; assay type: ADME, organism-based; parameters: time 24 hrs, dose 10 mg/kg, route po; settings: in vivo
NCI-H460 [9] = assay: Induction of apoptosis in human NCI-H460 cells with high-OXPHOS harboring KRAS Q61H mutant assessed as early apoptotic cells at 20 nM incubated for 72 hrs in presence of trametinib by Annexin V-FITC/propidium iodide staining based flow cytometry analysis (reference value: 1.95%); assay type: functional
NCI-H460 [10] = assay: Inhibition of mitochondrial respiration in human NCI-H460 cells with high-OXPHOS assessed as reduction in maximal oxygen consumption rate incubated for 12 hrs by seahorse XF96 flux analyzer; assay type: functional, cell-based; settings: dose 50-200 nM
[11] = Toxicity in mouse xenografted with human NCI-H460 cells with high-OXPHOS assessed as reduction in serum creatinine level at 30 mg/kg, po bid administered for 18 days; assay type: organism-based; settings: in vivo, 432 h, time 18 day
NCI-H460 [12] = assay: Antiproliferative activity against human NCI-H460 cells with high-OXPHOS assessed as reduction in cell viability incubated for 5 days by CellTiter 96 cell proliferation assay; assay type: functional, cell-based; settings: NCI-H460, 120 h
[13] = AUC (0 to infinity) in ICR mouse at 1 mg/kg, iv measured for 24 hrs by LC-MS/MS analysis; assay type: ADME, organism-based; parameters: dose 1 mg/kg, time 24 hrs, route iv; settings: in vivo
NCI-H460 [14] = assay: Antitumor activity against human NCI-H460 cells with high-OXPHOS xenografted in mouse assessed as reduction in trametinib-induced oxidative phosphorylation at 30 mg/kg, po bid administered for 18 days; assay type: functional, organism-based; settings: time 18.0 day
A549 [15] = assay: Antiproliferative activity against human Trametinib-resistant A549 cells with high-OXPHOS assessed as reduction in cell viability incubated for 5 days by CellTiter 96 cell proliferation assay; assay type: functional, cell-based; settings: A549, 120 h
NCI-H460 [16] = assay: Inhibition of colony formation in human NCI-H460 cells with high-OXPHOS harboring KRAS Q61H mutant incubated for 10 to 14 days in presence of trametinib by crystal violet staining based analysis; assay type: functional, cell-based; settings: time 10-14 day
NCI-H460 [17] = assay: Antitumor activity against human NCI-H460 cells with high-OXPHOS xenografted in mouse assessed as reduction in Ki67 expression at 30 mg/kg, po bid administered for 18 days in presence of trametinib by immunohistochemical analysis; assay type: functional, organism-based; settings: time 18.0 day
A549 [18] = assay: Induction of apoptosis in human Trametinib-resistant A549 cells with high-OXPHOS harboring KRAS G12S mutant assessed as late apoptotic cells at 20 nM incubated for 72 hrs in presence of trametinib by Annexin V-FITC/propidium iodide staining based flow cytometry analysis (reference value: 4.31%); assay type: functional
Cytochrome P450 2C19 = Cytochrome P450 2C19 (Homo sapiens, UniProt P33261); assay: Inhibition of CYP2C19 in human liver microsomes; assay type: ADME, Microsome
Sequence of Cytochrome P450 2C19 (P33261 whole entry): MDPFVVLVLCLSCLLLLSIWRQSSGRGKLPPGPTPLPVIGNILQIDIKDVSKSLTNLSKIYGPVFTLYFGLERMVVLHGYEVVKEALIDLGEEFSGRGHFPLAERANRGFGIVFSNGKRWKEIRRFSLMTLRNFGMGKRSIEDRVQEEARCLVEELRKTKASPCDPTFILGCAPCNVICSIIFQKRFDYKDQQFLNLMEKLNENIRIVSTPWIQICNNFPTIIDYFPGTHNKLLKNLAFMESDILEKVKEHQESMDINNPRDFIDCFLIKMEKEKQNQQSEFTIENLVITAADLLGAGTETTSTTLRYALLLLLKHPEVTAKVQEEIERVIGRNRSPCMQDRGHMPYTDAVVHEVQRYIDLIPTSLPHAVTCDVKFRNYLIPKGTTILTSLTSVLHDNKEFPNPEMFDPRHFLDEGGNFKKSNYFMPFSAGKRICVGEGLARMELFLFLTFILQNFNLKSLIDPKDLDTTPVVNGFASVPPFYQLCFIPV

NCI-H460 [19] = assay: Induction of apoptosis in human NCI-H460 cells with high-OXPHOS harboring KRAS Q61H mutant assessed as late apoptotic cells at 20 nM incubated for 72 hrs in presence of trametinib by Annexin V-FITC/propidium iodide staining based flow cytometry analysis (reference value: 5.68%); assay type: functional
NCI-H460 [20] = assay: Induction of apoptosis in human NCI-H460 cells with high-OXPHOS harboring KRAS Q61H mutant assessed as late apoptotic cells at 20 nM incubated for 72 hrs by Annexin V-FITC/propidium iodide staining based flow cytometry analysis (reference value: 5.68%); assay type: functional
[21] = Half life in ICR mouse at 1 mg/kg, iv measured for 24 hrs by LC-MS/MS analysis; assay type: ADME, organism-based; settings: in vivo
NCI-H358 [22] = assay: Inhibition of mitochondrial respiration in human NCI-H358 cells with low-OXPHOS assessed as reduction in oxygen consumption rate at 50 to 200 nM incubated for 12 hrs by seahorse XF96 flux analyzer; assay type: functional, cell-based; settings: dose 50-200 nM
A549 [23] = assay: Inhibition of colony formation in human Trametinib-resistant A549 cells with high-OXPHOS harboring KRAS G12S mutant incubated for 10 to 14 days in presence of trametinib by crystal violet staining based analysis; assay type: functional, cell-based; settings: time 10-14 day
NCI-H358 [24] = assay: Antiproliferative activity against human NCI-H358 cells with low-OXPHOS assessed as reduction in cell viability incubated for 5 days by CellTiter 96 cell proliferation assay; assay type: functional, cell-based; settings: NCI-H358, 120 h
A549 [25] = assay: Induction of apoptosis in human Trametinib-resistant A549 cells with high-OXPHOS harboring KRAS G12S mutant assessed as late apoptotic cells at 20 nM incubated for 72 hrs by Annexin V-FITC/propidium iodide staining based flow cytometry analysis (reference value: 4.27%); assay type: functional
A549 [26] = assay: Induction of apoptosis in human Trametinib-resistant A549 cells with high-OXPHOS harboring KRAS G12S mutant assessed as early apoptotic cells at 20 nM incubated for 72 hrs by Annexin V-FITC/propidium iodide staining based flow cytometry analysis (reference value: 4.31%); assay type: functional
NCI-H441 [27] = assay: Induction of apoptosis in human NCI-H441 cells with high-OXPHOS assessed as late apoptotic cells at 30 nM incubated for 48 hrs by Annexin V-FITC/propidium iodide staining based flow cytometry analysis (reference value: 9.27%); assay type: functional
[28] = Clearance in ICR mouse at 1 mg/kg, iv measured for 24 hrs by LC-MS/MS analysis; assay type: ADME, organism-based; settings: in vivo
[29] = Toxicity in mouse xenografted with human NCI-H460 cells with high-OXPHOS assessed as reduction in body weight at 30 mg/kg, po bid administered for 18 days in presence of trametinib; assay type: organism-based; settings: in vivo, 432 h, time 18 day

AUC(0-inf) [1]: 2300 ng·h/mL | IC50 (Cytochrome P450 3A4): > 50000 nM | AUC(0-t) at 24 h [8]: 2170 ng·h/mL | IC50 (NCI-H460 [12]): 5 nM | AUC(0-inf) [13]: 359 ng·h/mL | IC50 (A549 [15]): 15.1 nM | IC50 (Cytochrome P450 2C19): > 50000 nM | half-life [21]: 2.3 h | IC50 (NCI-H358 [24]): > 1000 nM | clearance [28]: 46.6 mL/min/kg
SMILES: Cc1c(C(=O)N2CCN(Cc3ccc(OCC(F)(F)F)cc3)CC2)nnn1Cc1ccc(C(=O)Nc2ccc(C(F)(F)F)cc2)nc1
inhibition (NCI-H460 [2]): Dose-Dependent Effect | Activity [3]: Non-Toxic | inhibition (NCI-H441 [4]): Dose-Dependent Effect | Activity (NCI-H460 [5]): Active | Activity (NCI-H441 [6]): Active | Activity (A549 [7]): Active | Activity (NCI-H460 [9]): 26.2% | inhibition (NCI-H460 [10]): Dose-Dependent Effect | Activity [11]: Non-Toxic | Activity (NCI-H460 [14]): Active | inhibition (NCI-H460 [16]): Active | Activity (NCI-H460 [17]): Active | Activity (A549 [18]): 43.4% | Activity (NCI-H460 [19]): 34.1% | Activity (NCI-H460 [20]): 16.2% | inhibition (NCI-H358 [22]): inactive | inhibition (A549 [23]): Active | Activity (A549 [25]): 7.45% | Activity (A549 [26]): 8.57% | Activity (NCI-H441 [27]): 30.9% | Activity [29]: Non-Toxic
